# Assay results published in patent US20160186209A1, “RECOMBINANT CELLS AND METHODS OF USING SUCH CELLS TO IDENTIFY CIRCADIAN RHYTHM MODULATORS” (University of Memphis Research Foundation, priority 2012, published 2016).
# Key:
# [1] = system: Differentiated 3T3-L1 cells (ERK phosphorylation); assay: Insulin-induced ERK phosphorylation (Western blot), differentiated 3T3-L1 cells; format: cell-based, mouse; conditions: 0.1 nM insulin for 5 minutes
# Method: (§1) FIGS. 1A-1C are graphs showing that fibroblasts, adipocytes, and hepatocytes display bioluminescence rhythms. […] Reporter cells were generated via lentiviral infection of either Per2-dLuc or Bmal1-dLuc luciferase reporter, and infected cell populations were recorded in a LumiCycle. Baseline-subtracted bioluminescence data of both reporter lines are plotted together to show the expected, approximately anti-phasic reporter expression for each cell type. […] Baseline-subtracted bioluminescence data of selected clonal lines representing both reporter types are plotted together to show anti-phasic reporter expression for each cell type. High reproducibility is illustrated by showing data from 24 of the 96 wells for each reporter. […] Differentiated 3T3-L1 and MMH-D3 cells were treated with 0.1, 1, or 10 nM insulin for 5, 15, or 30 minutes, followed by cell lysis and Western blot analysis with ERK and pERK antibodies. […] Data are representative of two independent experiments.
# (§2) To develop new models, a battery of luciferase-based reporters that can be introduced into cells via transient transfection or lentiviral transduction was engineered. To explore cell type specificity of clock gene function, new reporter cell lines comprising lentiviral luciferase reporter driven either by the Per2 or Bmal1 promoters were developed. […]
# [2] = system: Differentiated MMH-D3 cells (ERK phosphorylation); assay: Insulin-induced ERK phosphorylation (Western blot), differentiated MMH-D3 cells; format: cell-based; conditions: 0.1 nM insulin for 5 minutes
# Method: as §1, §2
substance,measurement,setting,value
insulin,ERK activation as reflected by its phosphorylation,[1],sufficient to activate ERK
same,ERK activation as reflected by its phosphorylation,[2],sufficient to activate ERK
